Legend:
[1] = tested on: ethylene-induced epinasty in Patio variety tomato plants; assay: Tomato epinasty test, volatile gas treatment; type: in vivo; settings: for Gas @ 10 ppm: visual rating of protection against ethylene-induced epinasty: gas 10 ppm v/v, 10 ppm ethylene, scale 0 to 10 (10 = complete protection); for Gas @ 1000 ppm: visual rating of protection against ethylene-induced epinasty: gas 1000 ppm v/v, 10 ppm ethylene after 4 h, scored 16 h later, scale 0 (no protection) to 10 (complete protection)
Description: (§1) Objective: The test procedure is designed to determine the ability of an experimental compound to block the epinastic growth response induced by ethylene in tomato plants when the experimental compound is administered either as a volatile gas or as a component of a spray solution.
(§2) Treatment chambers are of an appropriate size for the test plants and are airtight. Each is fitted with a reusable septum to be used for injection of ethylene. Test plants are Patio variety tomato seedlings planted two plants per three inch square plastic pot.
Volatile gas treatment entails placing two pots of Patio var. tomatoes into a polystyrene 4.8 L volume treatment chamber along with one-half (upper or lower section) of a 50×9 mm plastic Petri dish containing a Gelman filter pad. The appropriate amount of experimental compound, dissolved in 1.0 ml acetone, is pipetted onto the filter pad and the chamber immediately sealed. Four hours later ethylene gas equal to 10 ppm v/v final concentration is injected into the sealed chamber. Sixteen hours later the chambers are opened in an exhaust hood, allowed to air and the plants scored visually for the degree of protection against ethylene-induced epinasty conferred by the experimental compound when compared to ethylene treated and untreated controls on a scale of 0 to 10. A rating of 10 means complete protection. A rating of 0 means no protection from the effects of ethylene. Gas treatment concentrations are volume/volume.

[2] = tested on: ethylene-induced epinasty in Patio variety tomato plants; assay: Tomato epinasty test, spray application treatment; type: in vivo; settings: spray 10 ppm in 10% acetone/90% water, 0.05% Silwett L-77; 10 ppm ethylene; scale 0 to 10 (10 = complete protection)
Description: as §1, §2
Spray application treatment entails using a DeVilbiss atomizer to completely cover all foliage and stems of two pots of Patio var. tomato plants with the appropriate amount of experimental compound dissolved in 10% acetone/90% water with 0.05% Silwett L-77 surfactant. Plants are air-dried in a drying hood for four hours then transferred to a 4.8 L polystyrene chamber which is sealed.
Ethylene gas equal to 10 ppm v/v final concentration is injected into the sealed chamber. Sixteen hours later the chambers are opened in an exhaust hood, allowed to air and the plants scored visually for the degree of protection against ethylene-induced epinasty conferred by the experimental compound when compared to ethylene treated and untreated controls on a scale of 0 to 10. A rating of 10 means complete protection. A rating of 0 means no protection from the effects of ethylene.

Compound	Gas @ 10 ppm: visual rating of protection against ethylene-induced epinasty [1]	Gas @ 1000 ppm: visual rating of protection against ethylene-induced epinasty [1]	Spray @10 ppm: visual rating of protection against ethylene-induced epinasty [2]
CC1(c2ccccc2)C=C1 [Compound 6, 3-Methyl-3-phenylcyclopropene]	2.5	7	1
CC1=C(Cc2ccccc2)C1 [Compound 8, 1-methyl-2-benzylcyclopropene]	0	10	0
CCC1=C(COS(C)(=O)=O)C1 [Compound 83, 1-(Methanesulfonyloxymethyl)-2-ethylcyclopropene]	4	10	2
Cc1cccc(CC2=CC2)c1 [Compound 29]	10		10
C1=C(CCC2CCCCC2)C1 [Compound 21]	10		10
CC(C)(C)[Si](C)(C)OCCCCCCCC1=CC1 [Compound 82, 1-(7-T-butyldimethylsilyloxyheptyl)-cyclopropene]	3	10	0
COc1cccc(C(O)C2=C(C)C2)c1 (stereo not drawn) [Compound 39, 1-Methyl-2-(hydroxy(3-methoxyphenyl)methyl)cyclopropene]	2	10	0
CCCCCCCCC1=C(B(O)O)C1 [Compound 86, 2-Octyl-1-(boronic acid)-cyclopropene]	10		0
C1=C(CCCc2ccccc2)C1 [Compound 25]	10		10
C1=C(CCSc2ccncc2)C1 [Compound 43]	10		0
1-((2-Carboxy-N-morpholino)ethyl)-cyclopropene [Compound 15]	10		0

Source: patent US20110190137A1, “METHOD TO INHIBIT ETHYLENE RESPONSES IN PLANTS” (priority 2003, published 2011)
